From the supplement of paper PMC10949913

Tests used:
Conditions in all cases: 48 h
NCI-H295R [1] = experiment: AC50 viability; higher = less potent
How it was run: (§1)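 Three adrenocortical carcinoma cell lines were exposed for 48 h to library compounds at 11 concentrations in 1,536-well plates, then read by CellTiter-Glo luminescence. Signals were scaled per plate against vehicle and empty-well controls. From fitted concentration-response curves of inhibitory or non-responding classes alone, AC50 and area under the curve were obtained.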

CU-ACC1 = experiment: area under concentration-response curve (viability) (AUC (a.u.)); higher = less active
How it was run: as §1

CU-ACC2 = experiment: as above
How it was run: as §1

NCI-H295R [2] = experiment: as above
How it was run: as §1

SMILES	AC50 viability (NCI-H295R [1]) [µM]	area under concentration-response curve (CU-ACC1)	area under concentration-response curve (CU-ACC2)	area under concentration-response curve (NCI-H295R [2])
COc1ccc(/C=C\c2cc(OC)c(OC)c(OC)c2)cc1O	0.00934	505	474	333
CC(C)[C@](O)(c1ccc2cc(OC(F)F)c(OC(F)F)cc2c1)c1c[nH]nn1	23.5	492	–	532
CC/C(=C(/CC)c1ccc(O)cc1)c1ccc(O)cc1	18.6	516	585	517
Cc1ccc([S+](=O)([O-])Nc2cc(-c3ccc(C#N)s3)ccc2C)cc1	0.0417	506	507	373
Nc1ncnc2c1ncn2[C@@H]1O[C@H](CO)C[C@H]1O	20.9	550	612	528
CCCCc1ccc2[nH]c(NC(=O)OC)nc2c1	0.148	480	511	438
Nc1nccc(-c2ccc3noc(-c4ccc(Cl)cc4)c3c2)n1	0.263	344	345	354
C/C(=C\c1csc(C)n1)[C@@H]1C[C@@H]2O[C@]2(C)CCC[C@H](C)[C@H](O)[C@@H](C)C(=O)C(C)(C)[C@@H](O)CC(=O)O1	0.0118	467	548	346
CCn1c(-c2nonc2N)nc2c(C#CC(C)(C)O)ncc(OC[C@H]3CCCNC3)c21	4.17	369	524	442
CCN1CCN(Cc2ccc(NC(=O)c3ccc(C)c(NC(=O)c4cncc(-c5cccs5)c4)c3)cc2C(F)(F)F)CC1	7.42	501	521	432
COc1ccc([S+](=O)([O-])Nc2cc(-c3csc(C#N)c3)ccc2C)cc1	0.0934	489	529	393
CO[C@H]1C[C@H]2OC[C@@]2(OC(C)=O)[C@H]3[C@H](OC(=O)C4=CC=CC=C4)[C@]5(O)C[C@H](OC(=O)[C@H](O)[C@@H](NC(=O)OC(C)(C)C)C6=CC=CC=C6)/C(=C(/[C@@H](OC)C(=O)[C@]13C)C5(C)C)C	0.934	520	565	382
COc1ncc(-c2ccc3nccc(-c4ccnnc4)c3c2)cc1N[S+](=O)([O-])c1ccc(F)cc1F	0.059	362	441	362
Cc1cc2c(F)c(Oc3ncnn4cc(OCC(C)OC(=O)C(C)N)c(C)c34)ccc2[nH]1 (centres undefined)	18.6	473	468	481
Nc1nc2ccc(OC(F)(F)F)cc2s1	0.00372	493	431	503
C[C@H]1CCC/C=C/C2C[C@H](O)C[C@H]2[C@H](O)/C=C/C(=O)O1 (some centres undefined)	0.263	390	389	346
CN(C)C/C=C/C(=O)Nc1cccc(C(=O)Nc2cccc(Nc3ncc(Cl)c(-c4c[nH]c5ccccc45)n3)c2)c1	1.66	434	437	444
CC[C@]1(O)C[C@H]2CN(CCC3=C([NH]C4=C3C=CC=C4)[C@@](C2)(C(=O)OC)C5=C(OC)C=C6N(C)[C@H]7[C@](O)([C@H](OC(C)=O)[C@]8(CC)\C=C/CN9CC[C@]7([C@H]89)C6=C5)C(=O)OC)C1	3.32	504	560	444
COC1=CC=C(C=C1)C2=NC3=CC(=CC=C3[NH]2)/C4=N/NC(=O)CC4C (centres undefined)	18.6	532	632	541
COc1cc(NCc2ccc3nc(N)nc(N)c3c2C)cc(OC)c1OC	20.9	447	476	446
CC(C)c1onc(-c2c(Cl)cccc2Cl)c1COc1ccc(/C=C/c2cccc(C(=O)O)c2)c(Cl)c1	13.2	442	508	480
COc1ccc(-c2ccc3c(N4CCOC[C@@H]4C)nc(N4CCOC[C@@H]4C)nc3n2)cc1CO	0.417	431	485	387
NC(=O)[C@@H](CCC(F)(F)F)N(Cc1ccc(-c2ncon2)cc1F)[S+](=O)([O-])c1ccc(Cl)cc1	20.9	441	476	469
CCCCc1oc2ccc(N[S+](C)(=O)[O-])cc2c1C(=O)c1ccc(OCCCN(CCCC)CCCC)cc1	7.42	477	563	486
C[C@H]1Oc2cc(cnc2N)-c2c(nn(C)c2C#N)CN(C)C(=O)c2ccc(F)cc21	23.5	529	557	505
CSc1ccc(C(=O)/C=C/c2cc(C)c(OC(C)(C)C(=O)O)c(C)c2)cc1	48.1	540	–	571
CCC[C@H](N[C@H]1CCc2cc(F)cc(F)c2C1)C(=O)Nc1cn(C(C)(C)CNCC(C)(C)C)cn1	23.5	522	584	455

SMILES	AC50 viability (NCI-H295R [1]) [µM]	area under concentration-response curve (CU-ACC1)	area under concentration-response curve (CU-ACC2)	area under concentration-response curve (NCI-H295R [2])
C/C=C(\C)C(=O)N[C@@H](c1ccccc1)[C@@H](O)C(=O)O[C@H]1C[C@@]2(O)[C@@H](OC(=O)c3ccccc3)[C@@H]3[C@]4(OC(C)=O)CO[C@@H]4C[C@H](O)[C@@]3(C)C(=O)[C@H](OC(C)=O)C(=C1C)C2(C)C	0.833	447	515	418
O=C(Nc1ccncc1)C(=O)c1cn(Cc2ccc(Cl)cc2)c2ccccc12	0.372	471	419	418
O=C1S/C(=C\c2ccc(OCc3cccc(B(O)O)c3)cc2)C(=O)N1Cc1ccc(F)cc1	13.2	442	488	463
Cc1cncc2cccc([S+](=O)([O-])N3CCCN(C(=O)CN)C[C@@H]3C)c12	16.6	465	–	433
CC[C@H](C)[C@@H]([C@@H](CC(=O)N1CCC[C@H]1[C@H](OC)[C@@H](C)C(=O)N[C@@H](Cc1ccccc1)c1nccs1)OC)N(C)C(=O)[C@@H](NC(=O)[C@H](C(C)C)N(C)C)C(C)C	33.2	–	363	344
NC(=O)[C@H]1CCS[C@@H]2C[C@]3(CCCN3C(=O)Cc3ccc(NC(=O)COc4ccc(Cl)cc4Cl)cc3)C(=O)N12	14.8	–	528	483
CC1(C)C(=O)N(c2ccc(C#N)c(C(F)(F)F)c2)C(=S)N1Cc1ccc(-c2c[nH]nn2)cc1	20.9	472	–	483
CC[C@]12\C=C/CN3CC[C@]4([C@@H](N(C)C5=CC(=C(C=C45)[C@]6(C[C@H]7C[C@H](CN(C7)CC8=C6[NH]C9=C8C=CC=C9)C(C)(F)F)C(=O)OC)OC)[C@](O)([C@@H]1OC(C)=O)C(=O)OC)[C@H]23	0.698	538	–	527
COc1cc(Oc2ccnc3cc(OC)c(OC)cc23)ccc1NC(=O)NC(C)c1nccs1 (centres undefined)	14.8	–	–	540
CN(C)CCNC(=O)NC[C@H]1CC[C@@H]2[C@H](O1)c1cc(C(F)(F)F)ccc1N[C@H]2c1ccccc1	5.9	–	–	437
Cc1ncc(NC(=O)c2ccc(CN3CCN(C)CC3)c(C(F)(F)F)c2)cc1Nc1nccc(-c2cccnc2)n1	23.5	–	–	493
Cc1ccc(-c2nn(C(C)(C)CNC(=O)c3ccncc3)c3ncnc(N)c23)cc1	16.6	515	–	512
C[C@@H]1CCNC(=O)c2cc3ccc(C(=O)Nc4nc5ccccc5n4CCCN(C)C)cc3n21	18.6	513	–	553
CCN(CC)CCCCNc1ncc2c(n1)N(C)C(=O)N(c1c(Cl)c(OC)cc(OC)c1Cl)C2	16.6	520	–	524
CC(C)(O)CNc1nc(Nc2ccnc(C(F)(F)F)c2)nc(-c2cccc(C(F)(F)F)n2)n1	16.6	402	–	417
Clc1ccc(CCC(Cn2ccnc2)Sc2c(Cl)cccc2Cl)cc1 (centres undefined)	33.2	–	–	491
COc1c(C)c2c(c(O)c1C/C=C(\C)CCC(=O)OCCN1CCOCC1)C(=O)OC2	0.468	–	–	429
CCN(C)[S+](=O)([O-])Nc1ccc(F)c(C(=O)c2c[nH]c3ncc(-c4cnc(C5CC5)nc4)cc23)c1F	18.6	–	–	502
CCN(CC)C(=O)C1=CC=C(C=C1)C/2=C/C3(CCNCC3)OC4=CC=CC(=C24)O	20.9	–	–	404
Cc1ccc(Sc2ccccc2N2CCNCC2)c(C)c1	20.9	–	–	455
CON(C)C(=O)N1/N=C(S[C@@]1(CCCN)C2=CC=CC=C2)/C3=CC(=CC=C3F)F	2.09	–	517	348
COc1ccc(C(=O)c2c(C)n(CCN3CCOCC3)c3cc(I)ccc23)cc1	8.33	317	–	392
CCOC(=O)[C@@H](N)Cc1ccc(-c2cc(O[C@H](c3ccc(Cl)cc3-n3ccc(C)n3)C(F)(F)F)nc(N)n2)cc1	20.9	–	–	506
CCNC(=O)Nc1ccc(-c2nc3c(c(N4CCOC[C@@H]4C)n2)CCN(C2COC2)C3)cc1	4.68	–	561	520
Cc1cc(C(=O)N2CCN(c3cccc(Cl)c3)CC2)n(-c2ccccc2)n1	2.95	–	648	515
C[C@@H]1C[C@H]2[C@@H]3CC\C4=C\C(=O)\C=C/[C@]4(C)[C@@]3(Cl)[C@@H](O)C[C@]2(C)[C@@]1(OC(=O)C5=CC=CO5)C(=O)CCl	37.2	–	–	580
COC(=O)Nc1nc2cc([S+]([O-])c3ccccc3)ccc2[nH]1 (centres undefined)	11.8	–	–	522
